# Where two headings read alike, the source gives them in different places.
# Experiments:
# [1] = system: Citrobacter freundii DSM-30039; assay: MIC microdilution, C. freundii DSM-30039; type: cell-based; details: Citrobacter freundii, DSM30039
# Protocol: (§1) Indicator strains used in susceptibility assays were either part of our strain collection or purchased from the German Collection of Microorgansims and Cell Cultures (DSMZ) or from the American Type Culture Collection (ATCC). E. coli strain WT and corresponding E. coli mutants were kindly provided by Prof. Dr. P. Heisig, Pharmaceutical Biology and Microbiology, University of Hamburg. E. coli strains JW0401-1 (WT) and Δtsx were obtained from the CGSC collection.
# (§2) MIC values were determined in standardized microdilution assays. Overnight cultures were diluted in the appropriate growth medium to achieve an inoculum of 10^4-10^6 cfu/mL. Yeasts were grown in Myc medium (1% phytone peptone, 1% glucose, 50 mM HEPES, pH 7.0), S. pneumonia and Enterococcus spp. in tryptic soy broth (TSB: 1.7% peptone casein, 0.3% peptone soymeal, 0.25% glucose, 0.5% NaCl, 0.25% K2HPO4; pH 7.3); M. smegmatis in Middlebrook 7H9 medium supplemented with 10% Middlebrook ADC enrichment and 2 ml/I glycerol). All other listed bacteria were grown in Müller-Hinton broth (0.2% beef infusion solids, 1.75% casein hydrolysate, 0.15% starch, pH 7.4). Cystobactamides and reference drugs were added directly to the cultures in sterile 96-well plates as duplicates and serial dilutions were prepared. Microorganisms were grown on a microplate shaker (750 rpm, 30-37° C., 18-48 h), except S. pneumonia, which was grown at non-shaking conditions (37° C., 5% CO2, 18 h). Growth inhibition was assessed by visual inspection and the MIC was defined as the lowest concentration of compound that inhibited visible growth.
# [2] = system: E. coli DSM-1116; assay: MIC microdilution, E. coli DSM-1116; type: cell-based, Escherichia coli; details: Escherichia coli, DSM1116
# Protocol: as §1, §2
# [3] = system: E. coli WT; assay: MIC microdilution, E. coli WT; type: cell-based, Escherichia coli; details: Escherichia coli
# Protocol: as §1, §2
# [4] = system: E. coli WT-3 [gyrA(S83L, D87G)]; assay: MIC microdilution, E. coli WT-3 [gyrA(S83L, D87G)]; type: cell-based, Escherichia coli; details: Escherichia coli
# Protocol: as §1, §2
# [5] = system: E. coli WT-III [marRΔ74bp]; assay: MIC microdilution, E. coli WT-III [marRΔ74bp]; type: cell-based, Escherichia coli
# Protocol: as §1, §2
# [6] = system: Proteus vulgaris DSM-2140; assay: MIC microdilution, P. vulgaris DSM-2140; type: cell-based; details: Proteus vulgaris, DSM2140
# Protocol: as §1, §2
# [7] = system: Burkholderia cenocepacia DSM-16553; assay: MIC microdilution, Burkholderia cenocepacia DSM-16553; type: cell-based; details: DSM16553, read-out: MIC Burkholderia cenocepacia DSM-16553
# Protocol: as §1
# as §2, with “Cystobactamides and reference drugs were added directly to the cultures in sterile 96-well plates as duplicates and serial dilutions were prepared. Microorganisms were grown on a microplate shaker (750 rpm, 30-37° C., 18-48 h), except S. pneumonia, which was grown at non-shaking conditions (37° C., 5% CO2, 18 h).” left out
# [8] = system: Chromobacterium violaceum DSM-30191; assay: MIC microdilution, Chromobacterium violaceum DSM-30191; type: cell-based; details: DSM30191, read-out: MIC Chromobacterium violaceum DSM-30191
# Protocol: as §1
# as §2, with “Cystobactamides and reference drugs were added directly to the cultures in sterile 96-well plates as duplicates and serial dilutions were prepared. Microorganisms were grown on a microplate shaker (750 rpm, 30-37° C., 18-48 h), except S. pneumonia, which was grown at non-shaking conditions (37° C., 5% CO2, 18 h).” left out
# [9] = system: Escherichia coli MI-4 [gyrA(S83L), parC(S80I)]; assay: MIC microdilution, E. coli MI-4 [gyrA(S83L), parC(S80I)]; type: cell-based; details: read-out: MIC Escherichia coli MI-4 [gyrA(S83L), parC(S80I)]
# Protocol: as §1
# as §2, with “Cystobactamides and reference drugs were added directly to the cultures in sterile 96-well plates as duplicates and serial dilutions were prepared. Microorganisms were grown on a microplate shaker (750 rpm, 30-37° C., 18-48 h), except S. pneumonia, which was grown at non-shaking conditions (37° C., 5% CO2, 18 h).” left out
# [10] = system: Escherichia coli DSM-12242 (NAL^R); assay: MIC microdilution, E. coli DSM-12242 (NAL^R); type: cell-based; details: DSM12242, read-out: MIC Escherichia coli DSM-12242 (NAL^R)
# Protocol: as §1
# as §2, with “Cystobactamides and reference drugs were added directly to the cultures in sterile 96-well plates as duplicates and serial dilutions were prepared. Microorganisms were grown on a microplate shaker (750 rpm, 30-37° C., 18-48 h), except S. pneumonia, which was grown at non-shaking conditions (37° C., 5% CO2, 18 h).” left out
# [11] = system: Escherichia coli ATCC35218; assay: MIC microdilution, E. coli ATCC35218; type: cell-based; details: ATCC35218, read-out: MIC Escherichia coli ATCC35218
# Protocol: as §1
# as §2, with “Cystobactamides and reference drugs were added directly to the cultures in sterile 96-well plates as duplicates and serial dilutions were prepared. Microorganisms were grown on a microplate shaker (750 rpm, 30-37° C., 18-48 h), except S. pneumonia, which was grown at non-shaking conditions (37° C., 5% CO2, 18 h).” left out
# [12] = system: Escherichia coli ATCC25922; assay: MIC microdilution, E. coli ATCC25922; type: cell-based; details: ATCC25922, read-out: MIC Escherichia coli ATCC25922
# Protocol: as §1
# as §2, with “Cystobactamides and reference drugs were added directly to the cultures in sterile 96-well plates as duplicates and serial dilutions were prepared. Microorganisms were grown on a microplate shaker (750 rpm, 30-37° C., 18-48 h), except S. pneumonia, which was grown at non-shaking conditions (37° C., 5% CO2, 18 h).” left out
# [13] = system: Enterobacter aerogenes DSM-30053; assay: MIC microdilution, Enterobacter aerogenes DSM-30053; type: cell-based; details: Klebsiella aerogenes, DSM30053, read-out: MIC Enterobacter aerogenes DSM-30053
# Protocol: as §1
# as §2, with “Cystobactamides and reference drugs were added directly to the cultures in sterile 96-well plates as duplicates and serial dilutions were prepared. Microorganisms were grown on a microplate shaker (750 rpm, 30-37° C., 18-48 h), except S. pneumonia, which was grown at non-shaking conditions (37° C., 5% CO2, 18 h).” left out
# [14] = system: Klebsiella pneumoniae DSM-30104; assay: MIC microdilution, Klebsiella pneumoniae DSM-30104; type: cell-based; details: DSM30104, read-out: MIC Klebsiella pneumoniae DSM-30104
# Protocol: as §1
# as §2, with “Cystobactamides and reference drugs were added directly to the cultures in sterile 96-well plates as duplicates and serial dilutions were prepared. Microorganisms were grown on a microplate shaker (750 rpm, 30-37° C., 18-48 h), except S. pneumonia, which was grown at non-shaking conditions (37° C., 5% CO2, 18 h).” left out
# [15] = system: Pseudomonas aeruginosa ATCC27853; assay: MIC microdilution, P. aeruginosa ATCC27853; type: cell-based; details: Pseudomonas aeruginosa, ATCC27853, read-out: MIC Pseudomonas aeruginosa ATCC27853
# Protocol: as §1, §2
# [16] = system: Pseudomonas aeruginosa DSM-24599; assay: MIC microdilution, P. aeruginosa DSM-24599; type: cell-based; details: Pseudomonas aeruginosa, DSM24599, read-out: MIC Pseudomonas aeruginosa DSM-24599
# Protocol: as §1, §2
# [17] = system: Pseudomonas aeruginosa DSM-46316 (ESBL); assay: MIC microdilution, P. aeruginosa DSM-46316 (ESBL); type: cell-based; details: Pseudomonas aeruginosa, DSM46316, read-out: MIC Pseudomonas aeruginosa DSM-46316 (ESBL)
# Protocol: as §1, §2
# [18] = system: Serratia marcescens DSM-30121; assay: MIC microdilution, Serratia marcescens DSM-30121; type: cell-based; details: Serratia marcescens, DSM30121, read-out: MIC Serratia marcescens DSM-30121
# Protocol: as §1, §2
# [19] = system: Mycobacterium smegmatis ATCC700084; assay: MIC microdilution, Mycobacterium smegmatis ATCC700084; type: cell-based; details: Mycolicibacterium smegmatis, ATCC700084, read-out: MIC Mycobacterium smegmatis ATCC700084
# Protocol: as §1
# as §2, with “Cystobactamides and reference drugs were added directly to the cultures in sterile 96-well plates as duplicates and serial dilutions were prepared. Microorganisms were grown on a microplate shaker (750 rpm, 30-37° C., 18-48 h), except S. pneumonia, which was grown at non-shaking conditions (37° C., 5% CO2, 18 h).” left out
# [20] = system: Bacillus subtilis DSM-10; assay: MIC microdilution, Bacillus subtilis DSM-10; type: cell-based; details: DSM10, read-out: MIC Bacillus subtilis DSM-10
# Protocol: as §1
# as §2, with “Cystobactamides and reference drugs were added directly to the cultures in sterile 96-well plates as duplicates and serial dilutions were prepared. Microorganisms were grown on a microplate shaker (750 rpm, 30-37° C., 18-48 h), except S. pneumonia, which was grown at non-shaking conditions (37° C., 5% CO2, 18 h).” left out
# [21] = system: Enterococcus faecalis ATCC29212; assay: MIC microdilution, Enterococcus faecalis ATCC29212; type: cell-based; details: ATCC29212, read-out: MIC Enterococcus faecalis ATCC29212
# Protocol: as §1
# as §2, with “Cystobactamides and reference drugs were added directly to the cultures in sterile 96-well plates as duplicates and serial dilutions were prepared. Microorganisms were grown on a microplate shaker (750 rpm, 30-37° C., 18-48 h), except S. pneumonia, which was grown at non-shaking conditions (37° C., 5% CO2, 18 h).” left out
# [22] = system: Enterococcus faecium DSM-20477; assay: MIC microdilution, Enterococcus faecium DSM-20477; type: cell-based; details: Enterococcus faecium, DSM20477, read-out: MIC Enterococcus faecium DSM-20477
# Protocol: as §1, §2
# [23] = system: Candida albicans DSM-1665; assay: MIC microdilution, Candida albicans DSM-1665; type: cell-based; details: DSM1665, read-out: MIC Candida albicans DSM-1665
# Protocol: as §1
# as §2, with “Cystobactamides and reference drugs were added directly to the cultures in sterile 96-well plates as duplicates and serial dilutions were prepared. Microorganisms were grown on a microplate shaker (750 rpm, 30-37° C., 18-48 h), except S. pneumonia, which was grown at non-shaking conditions (37° C., 5% CO2, 18 h).” left out
smiles,measurement,setting,value
COC(C(N)=O)C(NC(=O)c1ccc(NC(=O)c2ccc([N+](=O)[O-])cc2)cc1)C(=O)Nc1ccc(C(=O)Nc2ccc(C(=O)Nc3ccc(C(=O)O)cc3OC(C)C)c(O)c2OC(C)C)cc1 (centres unmarked) [Cys 919-2],MIC,"[1]; Gram-negative set, read-out: MIC C. freundii DSM-30039",1 µg/mL
same,MIC,"[1]; larger panel, read-out: MIC Citrobacter freundii DSM-30039",1 µg/mL
same,MIC,"[2]; Gram-negative set, read-out: MIC E. coli DSM-1116",0.5 µg/mL
same,MIC,"[2]; larger panel, read-out: MIC Escherichia coli DSM-1116",1 µg/mL
same,MIC,"[3]; Gram-negative set, read-out: MIC E. coli WT",0.5 µg/mL
same,MIC,"[3]; larger panel, read-out: MIC Escherichia coli WT",0.5 µg/mL
same,MIC,"[4]; read-out: MIC E. coli WT-3 [gyrA(S83L, D87G)]",64 µg/mL
same,MIC,"[4]; read-out: MIC Escherichia coli WT-3 [gyrA(S83L, D87G)]",16 to 32 µg/mL
same,MIC E. coli WT-III [marRΔ74bp],[5]; Gram-negative set,>64 µg/mL
same,MIC Escherichia coli WTIII (marRΔ74bp),[5]; larger panel,64 µg/mL
same,MIC,"[6]; Gram-negative set, read-out: MIC P. vulgaris DSM-2140",4 µg/mL
same,MIC,"[6]; larger panel, read-out: MIC Proteus vulgaris DSM-2140",4 µg/mL
same,MIC,[7],> 64 µg/mL
same,MIC,[8],15 µg/mL
same,MIC,[9],2 to 4 µg/mL
same,MIC,[10],1 to 2 µg/mL
same,MIC,[11],1 µg/mL
same,MIC,[12],0.5 µg/mL
same,MIC,[13],> 64 µg/mL
same,MIC,[14],> 64 µg/mL
same,MIC,[15],> 64 µg/mL
same,MIC,[16],> 64 µg/mL
same,MIC,[17],> 64 µg/mL
same,MIC,[18],> 64 µg/mL
same,MIC,[19],> 64 µg/mL
same,MIC,[20],0.1 µg/mL
same,MIC,[21],0.1 µg/mL
same,MIC,[22],0.25 µg/mL
same,MIC,[23],> 64 µg/mL
